Reference: patent US9573953B2, “Heteroaromatic compounds as PI3 kinase modulators and methods of use” (CALITOR SCIENCES, LLC, priority 2013, dated 2017)

Legend:
PI3K p110β/p85α (h) = molecular target: T1, PI3K p110β/p85α (h) (Homo sapiens, UniProt P42338); assay: PI3K p110β/p85α (h) non-radioactive (HTRF) assay; format: biochemical
T1 construct: purchased Millipore UK Ltd (assays run there as a service)
Experimental: PI3K p110β/p85α (h) [Non-Radioactive Assay]
(§1) PI3K (p110β/p85α) (h) is incubated in assay buffer containing 10 μM phosphatidylinositol-4,5-bisphosphate and MgATP (concentration as required). The reaction is initiated by the addition of the MgATP mix. After incubation for 30 minutes at room temperature, the reaction is stopped by the addition of stop solution containing EDTA and biotinylated phosphatidylinositol-3,4,5-trisphosphate. Finally, detection buffer is added, which contains europium-labelled anti-GST monoclonal antibody, GST-tagged GRP1 PH domain and streptavidin-allophycocyanin. The plate is then read in time-resolved fluorescence mode and the homogenous time-resolved fluorescence (HTRF) signal is determined according to the formula HTRF=10000×(Em665 nm/Em620 nm).
(§2) The kinase assays described herein were performed at Millipore UK Ltd, Dundee Technology Park, Dundee DD2 1SW, UK.

PI3K (p120γ) (h) = molecular target: T2, PI3K (p120γ) (h) (Homo sapiens, UniProt P48736); assay: PI3K (p120γ) (h) non-radioactive (HTRF) assay; format: biochemical
T2 construct: purchased Millipore UK Ltd (assays run there as a service)
Experimental: PI3K (p120γ) (h) [Non-Radioactive Assay]
as §1, with “(p120γ)” for “(p110β/p85α)”
as §2

[1] = Compound stability in rat liver microsomes; format: in vitro ADME; details: for half-life at 5 μM / CLint scaled at 5 μM: pH 7.4; for CLint scaled at 5 μM: rat liver microsomes, in vivo CLint extrapolated
Experimental: Human or rat liver microsomes incubations were conducted in duplicate in polypropylene tubes. The typical incubation mixtures consisted of human or rat liver microsomes (0.5 mg protein/mL), compounds of interest (5 μM) and NADPH (1.0 mM) in a total volume of 200 μL potassium phosphate buffer (PBS, 100 mM, pH=7.4). Compounds were dissolved in DMSO and diluted with PBS such that the final concentration of DMSO was 0.05%. The enzymatic reactions were commenced with the addition of protein after a 3-min preincubation and incubated in a water bath open to the air at 37° C. Reactions were terminated at various time points (0, 5, 10, 15, 30, 60 min) by adding equal volume of ice-cold acetonitrile. The samples were stored at −80° C. until LC/MS/MS assays.
The concentrations of compounds in the incubation mixtures of human or rat liver microsomes were determined by a LC/MS/MS method. The ranges of the linearity in the concentration range were determined for each tested compounds.
A parallel incubation was performed using denatured microsomes as the negative control, and reactions were terminated at various time points (0, 15, 60 min) after incubation at 37° C.
Dextromethorphan (70 μM) was selected as the positive control, and reactions were terminated at various time points (0, 5, 10, 15, 30, 60 min) after incubation at 37° C. Both positive and negative control samples were included in each assay to ensure the integrity of the microsomal incubation system.
The concentrations of compounds in human or rat liver microsome incubations were plotted as a percentage of the relevant zero time point control for each reaction. The in vivo CLint were extrapolated (ref.: Naritomi Y, Terashita S, Kimura S, Suzuki A, Kagayama A, Sugiyama Y. “Prediction of human hepatic clearance from in vivo animal experiments and in vitro metabolic studies with liver microsomes from animals and humans”, Drug Metabolism and Disposition, 2001, 29, 1316-1324).

[2] = Pharmacokinetic profiles in dogs; format: in vivo; details: Dog; for F: iv dose 1 mg/kg, oral dose generally 10 mg/kg; for clearance / AUC(0-t) / half-life / Vd: iv dosing, 1 mg/kg; for AUC(0-t) / half-life / Vd: plasma; for Vd: read-out: Vss
Experimental: (§3) The compounds disclosed herein are assessed in pharmacokinetic studies in mice, rats, dogs or monkeys. The compounds are administered as a water solution, 2% HPMC+1% TWEEN®80 in water solution, 5% DMSO+5% solutol in saline, 4% MC suspension or capsule. For the intravenous administration, the animals are generally given at 1 or 2 mg/kg dose. For the oral (p.o.) dosing, mice and rats are generally given 5 or 10 mg/kg dose, and dogs and monkeys are generally given 10 mg/kg dose. The blood samples (0.3 mL) are drawn at 0.25, 0.5, 1.0, 2.0, 3.0, 4.0, 6.0, 8.0, 12 and 24 h time points or 0.083, 0.25, 0.5, 1.0, 2.0, 4.0, 6.0, 8.0 and 24 h time points and centrifuged at 3,000 or 4000 rpm for 2 to 10 min. The plasma solutions are collected and stored at −20° C. or −70° C. until analyzed by LC/MS/MS as described above.

[3] = Pharmacokinetic profiles in monkeys; format: in vivo; details: Monkey; for F: iv dose 1 mg/kg, oral dose generally 10 mg/kg; for Cl/F / AUC(0-t) / half-life / Vd: iv dosing, 1 mg/kg; for AUC(0-t) / half-life / Vd: plasma; for Vd: read-out: Vss
Experimental: as §3

[4] = Pharmacokinetic profiles in mice; format: in vivo; details: Mouse; for F: iv dose 1 mg/kg, oral dose generally 5 or 10 mg/kg; for clearance / AUC(0-t) / half-life / Vd: iv dosing, 1 mg/kg; for AUC(0-t) / half-life / Vd: plasma; for Vd: read-out: Vss
Experimental: as §3

PI3K p110α/p85α (h) = molecular target: T3, PI3K p110α/p85α (h) (Homo sapiens, UniProt P42336); assay: PI3K p110α/p85α (h) non-radioactive (HTRF) assay; format: biochemical
T3 construct: purchased Millipore UK Ltd (assays run there as a service)
Experimental: PI3K p110α/p85α (h) [Non-Radioactive Assay]
as §1, with “p110α/p85α” for “(p110β/p85α)”, “phosphatidylinositol 4,5-bisphosphate” for “phosphatidylinositol-4,5-bisphosphate”, “ATP solution.” for “MgATP mix.”, “streptavidin allophycocyanin.” for “streptavidin-allophycocyanin.”
as §2

[5] = rat liver microsomes 0.5 mg protein/mL, compound 5 μM, NADPH, 37° C.

T1 sequence (P42338 whole entry): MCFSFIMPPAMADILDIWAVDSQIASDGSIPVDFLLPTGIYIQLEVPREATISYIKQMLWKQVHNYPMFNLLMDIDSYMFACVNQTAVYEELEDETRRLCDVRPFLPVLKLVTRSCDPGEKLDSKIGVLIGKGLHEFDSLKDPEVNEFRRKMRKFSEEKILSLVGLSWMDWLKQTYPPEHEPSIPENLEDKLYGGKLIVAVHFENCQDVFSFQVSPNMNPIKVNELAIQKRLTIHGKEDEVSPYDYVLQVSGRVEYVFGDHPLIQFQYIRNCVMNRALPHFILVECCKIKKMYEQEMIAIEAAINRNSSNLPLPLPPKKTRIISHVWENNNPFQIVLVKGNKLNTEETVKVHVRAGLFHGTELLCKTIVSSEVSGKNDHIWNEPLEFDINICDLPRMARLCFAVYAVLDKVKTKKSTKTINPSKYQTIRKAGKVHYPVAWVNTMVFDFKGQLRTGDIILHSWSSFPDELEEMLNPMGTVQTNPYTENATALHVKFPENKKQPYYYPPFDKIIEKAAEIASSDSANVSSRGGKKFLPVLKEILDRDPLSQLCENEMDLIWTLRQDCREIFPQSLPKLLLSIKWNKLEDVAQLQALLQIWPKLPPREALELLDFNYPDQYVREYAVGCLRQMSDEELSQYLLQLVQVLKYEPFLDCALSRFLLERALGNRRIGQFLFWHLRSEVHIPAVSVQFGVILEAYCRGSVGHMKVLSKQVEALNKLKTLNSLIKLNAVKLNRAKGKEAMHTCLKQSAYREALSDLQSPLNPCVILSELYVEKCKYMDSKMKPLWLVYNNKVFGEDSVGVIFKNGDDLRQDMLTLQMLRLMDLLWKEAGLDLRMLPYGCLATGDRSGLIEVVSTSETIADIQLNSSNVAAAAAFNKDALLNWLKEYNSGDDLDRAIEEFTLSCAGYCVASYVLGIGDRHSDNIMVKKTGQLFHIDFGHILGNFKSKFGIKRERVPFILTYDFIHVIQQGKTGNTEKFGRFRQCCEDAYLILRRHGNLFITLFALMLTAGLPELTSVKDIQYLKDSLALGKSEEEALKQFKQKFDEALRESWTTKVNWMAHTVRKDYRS
T1 sequence (P27986 whole entry partner): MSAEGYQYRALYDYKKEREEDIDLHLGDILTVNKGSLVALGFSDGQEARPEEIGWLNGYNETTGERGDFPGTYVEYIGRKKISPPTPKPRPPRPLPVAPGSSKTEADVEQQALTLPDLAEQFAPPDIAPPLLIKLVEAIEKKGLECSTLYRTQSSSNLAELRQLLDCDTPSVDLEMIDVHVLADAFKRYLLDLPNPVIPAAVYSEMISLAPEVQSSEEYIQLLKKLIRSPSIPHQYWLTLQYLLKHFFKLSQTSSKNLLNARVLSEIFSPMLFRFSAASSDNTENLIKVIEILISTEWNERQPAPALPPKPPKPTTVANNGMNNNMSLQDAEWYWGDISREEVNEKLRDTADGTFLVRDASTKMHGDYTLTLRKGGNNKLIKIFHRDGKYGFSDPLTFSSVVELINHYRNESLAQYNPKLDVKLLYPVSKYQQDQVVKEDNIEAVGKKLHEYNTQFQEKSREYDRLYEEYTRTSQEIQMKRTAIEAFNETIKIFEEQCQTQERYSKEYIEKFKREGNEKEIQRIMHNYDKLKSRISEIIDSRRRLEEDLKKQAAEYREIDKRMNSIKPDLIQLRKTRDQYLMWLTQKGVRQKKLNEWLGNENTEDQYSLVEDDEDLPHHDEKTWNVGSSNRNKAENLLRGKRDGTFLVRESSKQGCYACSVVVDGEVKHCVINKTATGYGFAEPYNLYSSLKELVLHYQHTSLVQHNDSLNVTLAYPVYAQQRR
T2 sequence (P48736 whole entry): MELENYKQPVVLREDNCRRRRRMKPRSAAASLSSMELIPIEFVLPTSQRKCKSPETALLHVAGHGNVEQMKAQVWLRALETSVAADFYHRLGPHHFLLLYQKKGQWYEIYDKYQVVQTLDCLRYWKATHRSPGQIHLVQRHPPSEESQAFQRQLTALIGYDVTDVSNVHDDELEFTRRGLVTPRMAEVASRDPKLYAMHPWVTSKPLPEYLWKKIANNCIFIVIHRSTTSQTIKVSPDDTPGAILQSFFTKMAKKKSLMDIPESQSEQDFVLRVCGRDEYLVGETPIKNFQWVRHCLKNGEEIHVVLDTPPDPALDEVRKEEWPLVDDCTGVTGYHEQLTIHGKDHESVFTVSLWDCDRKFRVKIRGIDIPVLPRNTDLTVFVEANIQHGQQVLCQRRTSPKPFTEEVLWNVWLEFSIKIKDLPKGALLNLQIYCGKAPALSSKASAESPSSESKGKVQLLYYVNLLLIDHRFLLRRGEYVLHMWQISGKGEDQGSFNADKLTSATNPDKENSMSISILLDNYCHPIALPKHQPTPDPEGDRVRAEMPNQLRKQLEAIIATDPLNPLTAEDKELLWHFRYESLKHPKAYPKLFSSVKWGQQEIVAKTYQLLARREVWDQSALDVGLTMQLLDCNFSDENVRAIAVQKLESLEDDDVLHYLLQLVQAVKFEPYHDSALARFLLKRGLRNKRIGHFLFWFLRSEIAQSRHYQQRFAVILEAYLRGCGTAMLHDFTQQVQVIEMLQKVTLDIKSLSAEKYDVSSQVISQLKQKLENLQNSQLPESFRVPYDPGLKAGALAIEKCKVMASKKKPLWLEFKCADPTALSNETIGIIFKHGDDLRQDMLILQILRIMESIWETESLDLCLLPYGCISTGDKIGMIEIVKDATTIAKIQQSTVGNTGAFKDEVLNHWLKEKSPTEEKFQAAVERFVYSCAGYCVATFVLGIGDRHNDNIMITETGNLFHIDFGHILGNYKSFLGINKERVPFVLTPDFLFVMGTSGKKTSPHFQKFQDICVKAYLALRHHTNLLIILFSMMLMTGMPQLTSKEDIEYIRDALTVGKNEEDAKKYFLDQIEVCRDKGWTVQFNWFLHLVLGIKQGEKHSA
T3 sequence (P42336 whole entry): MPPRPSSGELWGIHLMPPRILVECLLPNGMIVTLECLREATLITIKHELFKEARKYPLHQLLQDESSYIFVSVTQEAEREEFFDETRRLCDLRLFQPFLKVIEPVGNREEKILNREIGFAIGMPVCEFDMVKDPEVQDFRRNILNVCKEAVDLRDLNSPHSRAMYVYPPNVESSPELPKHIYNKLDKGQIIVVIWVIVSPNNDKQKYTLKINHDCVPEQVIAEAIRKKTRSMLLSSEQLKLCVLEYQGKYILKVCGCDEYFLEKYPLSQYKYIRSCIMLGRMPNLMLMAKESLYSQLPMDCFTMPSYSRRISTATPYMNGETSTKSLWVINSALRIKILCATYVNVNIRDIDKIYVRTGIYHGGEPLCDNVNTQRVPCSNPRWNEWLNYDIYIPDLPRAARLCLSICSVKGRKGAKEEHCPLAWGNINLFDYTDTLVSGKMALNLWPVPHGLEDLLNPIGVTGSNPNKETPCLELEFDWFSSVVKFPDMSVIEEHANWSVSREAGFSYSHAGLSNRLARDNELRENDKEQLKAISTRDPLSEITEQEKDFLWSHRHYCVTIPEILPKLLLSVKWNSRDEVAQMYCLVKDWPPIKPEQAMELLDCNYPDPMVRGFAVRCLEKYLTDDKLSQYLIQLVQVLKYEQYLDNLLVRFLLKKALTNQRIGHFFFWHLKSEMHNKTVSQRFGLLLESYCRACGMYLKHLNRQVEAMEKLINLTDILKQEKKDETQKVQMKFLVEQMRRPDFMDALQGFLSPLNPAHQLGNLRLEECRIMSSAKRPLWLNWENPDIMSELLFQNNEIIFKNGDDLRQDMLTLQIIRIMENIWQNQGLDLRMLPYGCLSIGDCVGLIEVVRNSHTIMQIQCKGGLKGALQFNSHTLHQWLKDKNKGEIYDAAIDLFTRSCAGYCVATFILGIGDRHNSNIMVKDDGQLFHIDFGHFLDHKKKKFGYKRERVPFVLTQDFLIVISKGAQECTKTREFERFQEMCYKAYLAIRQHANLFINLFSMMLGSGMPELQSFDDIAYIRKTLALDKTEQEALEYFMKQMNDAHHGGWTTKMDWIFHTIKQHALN
T3 sequence (P27986 whole entry partner): as the sequence (P27986 whole entry partner) above

Compound | IC50 (PI3K p110β/p85α (h)) | IC50 (PI3K (p120γ) (h)) | half-life at 5 μM [1, 5] | CLint scaled at 5 μM [1] | F [2] | clearance [2] | AUC(0-t) [2] | half-life [2] | Vd [2] | F [3] | Cl/F [3] | AUC(0-t) [3] | half-life [3] | Vd [3] | F [4] | clearance [4] | AUC(0-t) [4] | half-life [4] | Vd [4] | further results
COc1ncc(-c2ccn3ncc(C#CCO)c3n2)cc1NS(=O)(=O)c1ccc(F)cc1F [Ex. 1, 2,4-difluoro-N-(5-(3-(3-hydroxyprop-1-yn-1-yl)pyrazolo[1,5-a]pyrimidin-5-yl)-2-methoxypyridin-3-yl)benzenesulfonamide] | 84 nM | 6 nM | 2.92 h | 14.2 mL/min/kg | – | – | – | – | – | – | – | – | – | – | – | – | – | – | – | –
COc1ncc(-c2ccn3ncc(C#N)c3c2)cc1NS(=O)(=O)c1ccc(F)cc1F [Ex. 3, N-(5-(3-cyanopyrazolo[1,5-a]pyridin-5-yl)-2-methoxypyridin-3-yl)-2,4-difluorobenzenesulfonamide] | 41 nM | 6 nM | 9.59 h | 4.32 mL/min/kg | 108.5% | 4.5 mL/min/kg | 3670 ng·h/mL | 0.67 h | 0.23 L/kg | 59.8% | 2.67 mL/min/kg | 5980 ng·h/mL | 9.7 h | 0.92 L/kg | 79.3% | 0.33 mL/min/kg | 57100 ng·h/mL | 5.45 h | 0.13 L/kg | –
COc1ncc(-c2ccn3ncc(C#CCO)c3c2)cc1NS(=O)(=O)c1ccc(F)cc1F [Ex. 4, 2,4-difluoro-N-(5-(3-(3-hydroxyprop-1-yn-1-yl)pyrazolo[1,5-a]pyridin-5-yl)-2-methoxypyridin-3-yl)benzenesulfonamide] | 22 nM | 15 nM | 2.56 h | 16.2 mL/min/kg | 108.5% | 1.83 mL/min/kg | 9070 ng·h/mL | 6.13 h | 0.19 L/kg | 24.0% | 3 mL/min/kg | 5740 ng·h/mL | 4.64 h | 0.42 L/kg | 70.0% | 2.83 mL/min/kg | 5810 ng·h/mL | 1.11 h | 0.18 L/kg | IC50 (PI3K p110α/p85α (h)): 1 nM
COc1ncc(-c2ccn3ncc(C#N)c3n2)cc1NS(=O)(=O)c1ccc(F)cc1F [Ex. 2, N-(5-(3-cyanopyrazolo[1,5-a]pyrimidin-5-yl)-2-methoxypyridin-3-yl)-2,4-difluorobenzenesulfonamide] | 45 nM | 5 nM | – | – | – | – | – | – | – | – | – | – | – | – | – | – | – | – | – | T1/2 [1, 5]: ∞
